Results from PubChem BioAssay (NCI).
“And” between values parts separate entries of the source, which are not always exact repeats. Equal values may be shown once.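 These data come from cells grown in 96-well plates and exposed to compound for 48 hours at five concentrations. Abbreviation: GI50, concentration required for 50% inhibition of growth. Definition used: TGI = concentration required for complete inhibition of growth.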

Columns and labels:
Experiment in all cases: DTP human tumour cell line panel, 48 h
LOX IMVI melanoma = system: LOX IMVI melanoma
SK-MEL-2 melanoma = system: SK-MEL-2 melanoma
SK-MEL-28 melanoma = system: SK-MEL-28 melanoma
SK-MEL-5 melanoma = system: SK-MEL-5 melanoma
SK-OV-3 ovarian = system: SK-OV-3 ovarian
SNB-19 CNS = system: SNB-19 CNS
SR leukemia = system: SR leukemia
UACC-62 melanoma = system: UACC-62 melanoma
UO-31 renal = system: UO-31 renal
MCF7 breast = system: MCF7 breast

Structure (SMILES)	TGI (LOX IMVI melanoma) [µM]	TGI (SK-MEL-2 melanoma)	TGI (SK-MEL-28 melanoma)	TGI (SK-MEL-5 melanoma)	TGI (SK-OV-3 ovarian)	TGI (SNB-19 CNS)	TGI (SR leukemia) [µM]	TGI (UACC-62 melanoma)	TGI (UO-31 renal)	TGI (MCF7 breast) [µM]	GI50 (MCF7 breast)	GI50 (SR leukemia) [µM]	GI50 (LOX IMVI melanoma) [µM]	GI50 (SK-MEL-2 melanoma) [µM]	GI50 (SK-MEL-28 melanoma) [µM]	GI50 (SK-MEL-5 melanoma) [µM]	GI50 (SK-OV-3 ovarian) [µM]	GI50 (SNB-19 CNS) [µM]	GI50 (UACC-62 melanoma) [µM]	GI50 (UO-31 renal) [µM]
CCOC(=O)/N=C(\N)SCc1ccccc1	> 100	> 100 µM	> 100 µM	> 100 µM	> 100 µM	> 100 µM	> 100	> 100 µM	> 100 µM											
COc1cc2c(c(OC)c1OC)-c1[nH]ncc1CC2	> 100	> 100 µM	> 100 µM	> 100 µM	> 100 µM	> 100 µM	> 100	> 100 µM	> 100 µM											
COc1cc(/C=C/C(C)=O)ccc1OP(=O)(O)O	> 100	> 100 µM	> 100 µM	> 100 µM	> 100 µM	> 100 µM		> 100 µM	> 100 µM	> 100										
COc1cc([C@@H]2c3cc4c(cc3[C@@H](NCCNCCO)[C@H]3COC(=O)[C@H]23)OCO4)cc(OC)c1O		> 26.9 µM and 4.89 µM	9.5 µM and 9.02 µM	5.14 µM and 6.05 µM	12.4 µM and 8.25 µM	19.2 µM and > 32.2 µM		5.34 µM and 3.61 µM	50 µM and 39.9 µM	> 36.7	0.183 µM and 0.0876 µM	0.303								
CC1(O)CC2C(CC1SCCO)C2(C)C (stereo not given)		> 100 µM	> 100 µM	> 100 µM	> 100 µM				> 100 µM											
O=c1c2ccc3cccc4c(=O)cc(c5ccccc15)-c2c34	> 100	> 100 µM	> 100 µM	> 100 µM	> 100 µM	> 100 µM	> 100	> 100 µM	> 100 µM											
O=C1CCCC/C1=C/C=C/c1ccccc1	> 100	> 100 µM	> 100 µM	> 100 µM	> 100 µM	> 100 µM		> 100 µM	> 100 µM											
O=C(Nc1c(-c2nc3ccccc3[nH]2)sc(=S)n1-c1ccccc1)c1ccccc1	> 100	> 100 µM	> 100 µM	> 100 µM	> 100 µM	> 100 µM		> 100 µM	> 100 µM											
COc1cnc2c(c1)C(=O)c1c-2n(CCCn2ccnc2)c(=O)c2cc(Cl)ccc12	0.116	14.3 µM	> 100 µM	0.164 µM	0.303 µM	> 100 µM		0.204 µM	2.34 µM		< 0.01 µM		0.0198	0.574	0.611	0.0387	0.0403	0.0321	0.0283	0.0264
COc1cc(OC)c2c(=O)c(O)c(-c3ccc(OC)c(OC)c3)oc2c1	> 100		> 31.6 µM	> 100 µM	> 100 µM	> 100 µM	19.2	> 31.6 µM	> 100 µM	> 31.6										
C=CC1CC12C(=O)C1OC2(C)C2C(=O)c3c(ccc4c3ccc3ccccc34)C(=O)C12 (stereo not given)		> 100 µM	> 100 µM		> 100 µM	> 100 µM			> 100 µM	> 100	34.2 µM			> 100	65.3		> 100	> 100		> 100
